Earlier results on 3 compounds are cited in patent publication US20070185035A1, “ENHANCED MUCOSAL ADMINISTRATION OF NEUROPROTECTIVE PEPTIDES” (Nastech Pharmaceutical Company Inc., priority 2005, published 2007).

Like-named read-outs stand apart in the source and are kept apart here.

The test system of one data set is ciliary motility. As to conditions: without obvious ultrastructural lesions.
The conditions of data set [1]: anesthetized rats.

Take “2-alkyl-4-hydroxyquinolines [pyo compound]”: the concentration producing ciliostasis in the data set on ciliary motility was 50 µg/mL.

As to “human growth hormone: human growth hormone given nasally to rats with or without N-acetyl-L-cysteine”, the values for the nasal bioavailability in data set [1] (with N-acetyl-L-cysteine (ACS)) and in data set [1] (without N-acetyl-L-cysteine) were 12.2% and 7.5%, respectively.

Regarding `CC(C)CC(N)B(O)O` (centres unmarked) [boro-leucine], in the data set with aminopeptidases, the “effectiveness in enzyme inhibition relative to bestatin” value is “more than 100 times” and the “effectiveness in enzyme inhibition relative to puromycin” value is given as “more than 1000 times”.
